Measurements: US20100249172A1, “9-CHLORO NOSCAPINE AND ITS USE IN TREATING CANCERS, INCLUDING DRUG-RESISTANT CANCERS” (EMORY UNIVERSITY, priority 2007, published 2010)

Experiments:
MCF-7 cells [1] = test: Cell cycle analysis by flow cytometry (propidium iodide); type: cell-based, human; conditions: for G0/G1 % / G2/M % / S % / Sub-G1 %: mean ± S.E.M.
Description: The flow cytometric evaluation of the cell cycle status was performed as described previously. Briefly, 2×10^6 cells were centrifuged, washed twice with ice-cold PBS, and fixed in 70% ethanol. Tubes containing the cell pellets were stored at 4° C. for at least 24 hours. Cells were then centrifuged at 1000×g for 10 min and the supernatant was discarded. The pellets were washed twice with 5 ml of PBS and then stained with 0.5 ml of propidium iodide (0.1% in 0.6% Triton-X in PBS) and 0.5 ml of RNase A (2 mg/ml) for 45 minutes in dark. Samples were then analyzed on a FACSCalibur flow cytometer (Beckman Coulter Inc., Fullerton, Calif.).
To investigate the precise mechanisms of cell death, the effect of 9-cloro-noscapine and other halogenated noscapine analogs on percent G2/M cells (mitotic index) and percent sub-G1 cells (apoptotic index) was examined as a function of dose and time in MCF-7 cells using fluorescence activated cell sorting (FACS) analysis. The effect of all compounds including noscapine was evaluated at three doses-5 μM, 10 μM and 25 μM for 0, 24, 48 and 72 hours of drug treatment. […] Fluorescently labeled DNA is a good indicator of cell cycle progression and cell death. An unreplicated complement of diploid (2N) DNA cells represents the G1 phase while duplicated tetraploid (4N) DNA cells represent G2 and M phases. Cells in the process of DNA duplication between diploid and tetraploid peaks represent S phase when DNA is being synthesized. Less than diploid DNA appears in populations of dying cells that degrade their DNA to different extents. Treatment of MCF-7 cells with these compounds for 0, 24, 48 and 72 hours led to profound perturbations of the cell cycle profile at 25 μM (FIGS. 3 A-D). […] The distribution of cell population over G0/G1, S, G2/M and sub-G1 phases of the cell cycle for 25 μM concentration is shown in Table 1.

caspase-3 = test: Apoptotic mechanism in cancer cells; type: cell-based
[2] = test system: normal human fibroblast cells; test: Cell cycle progression in normal cells; type: cell-based
[3] = test system: CEM/VM-1-5 (teniposide-resistant variant); test: Inhibition of cell proliferation; type: cell-based, human
MDA-MB-231 cells [4] = test: DAPI staining, cell morphology by fluorescence microscopy; type: cell-based, human; conditions: 25 μM, 72 hours
Description: FIG. 2 is a series of photographs showing the effect of 9-chloro-nos on the morphology of cancer cells. Morphologic criteria for apoptotic cell death include, for example, chromatin condensation with aggregation along the nuclear envelope and plasma membrane blebbing followed by separation into small, apoptotic bodies. Panels show morphological evaluation of nuclei stained with DAPI from control cells (upper panels) and cells treated with 25 μM concentration of 9-Cl-nos for 72 hours (lower panels) using fluorescence microscopy. […] (Scale bar=15 μm).
Cell morphology was evaluated by fluorescence microscopy following DAPI staining (Vectashield, Vector Labs, Inc., Burlingame, Calif.). MDA-MB-231 cells were grown on poly-L-lysine coated coverslips in 6-well plates and were treated with the halogenated analogs at 25 μM for 72 hours. After incubation, coverslips were fixed in cold methanol and washed with PBS, stained with DAPI, and mounted on slides. Images were captured using a BX60 microscope (Olympus, Tokyo, Japan) with an 8-bit camera (Dage-MTI, Michigan City, Ind.) and IP Lab software (Scanalytics, Fairfax, Va.). Apoptotic cells were identified by features characteristic of apoptosis (e.g. nuclear condensation, formation of membrane blebs and apoptotic bodies).

CEM cells = test: MTS cell proliferation assay; type: cell-based, human
Description: (§1) Suspension cells (CEM) were seeded into 96-well plates at a density of 5×10^3 cells per well and were treated with increasing concentrations of all halogenated analogs for 72 hours. Measurement of cell proliferation was performed colorimetrically by 3-(4,5-dimethylthiazol-2-yl)-5-(3-carboxymethoxyphenyl)-2-(4-sulphophenyl)-2H-tetrazolium, inner salt (MTS) assay, using the CellTiter96 AQueous One Solution Reagent (Promega, Madison, Wis.). Cells were exposed to MTS for 3 hours and absorbance was measured using a microplate reader (Molecular Devices, Sunnyvale, Calif.) at an optical density (OD) of 490 nm. The percentage of cell survival as a function of drug concentration for both the assays was then plotted to determine the IC50 value, which stands for the drug concentration needed to prevent cell proliferation by 50%.
Having identified tubulin as the target molecule, the pharmacological study was extended at the cellular level to determine if all the halogenated analogs affected cancer cell proliferation. As a preliminary screen, 9-chloro-nos and noscapine were evaluated for their antiproliferative activity in three human cancer cell lines; human breast adenocarcinoma cells (estrogen- and progesterone-receptor positive, MCF-7 and estrogen- and progesterone-receptor negative, MDA-MB-231) and human lymphoblastoid cells CEM. […]

MCF-7 cells [5] = test: Sulforhodamine B (SRB) cell proliferation assay; type: cell-based; conditions: Homo sapiens, MCF7, MCF-7, 72 hours drug treatment
Description: (§2) Sulforhodamine B (SRB) assay: The cell proliferation assay was performed in 96-well plates as described previously. Adherent cells (MCF-7 and MDA-MB-231) were seeded in 96-well plates at a density of 5×10^3 cells per well. They were treated with increasing concentrations of the halogenated analogs the next day while in log-phase growth. After 72 hours of drug treatment, cells were fixed with 50% trichloroacetic acid and stained with 0.4% sulforhodamine B dissolved in 1% acetic acid. After 30 minutes, cells were then washed with 1% acetic acid to remove the unbound dye. The protein-bound dye was extracted with 10 mM Tris base to determine the optical density at 564-nm wavelength.
as §1, with “The percentage of cell survival as a function of drug concentration for both the assays was then plotted to determine the IC50 value, which stands for the drug concentration needed to prevent cell proliferation by 50%.” left out

MDA-MB-231 cells [6] = test: Sulforhodamine B (SRB) cell proliferation assay; type: cell-based; conditions: Homo sapiens, MDA-MB-231, 72 hours drug treatment
Description: as §2
as §1, with “The percentage of cell survival as a function of drug concentration for both the assays was then plotted to determine the IC50 value, which stands for the drug concentration needed to prevent cell proliferation by 50%.” left out

**Q.** `COc1ccc2c(c1OC)C(=O)O[C@@H]2[C@H]1c2c(c(Cl)c3c(c2OC)OCO3)CCN1C` [9-Cl-nos, (S)-3-((R)-9-chloro-4-methoxy-6-methyl-5,6,7,8-tetrahydro-[1,3]dioxolo[4,5-g]isoquinolin-5-yl)-6,7-dimethoxyisobenzofuran-1(3H)-one] was tested. Which G0/G1 % (MCF-7 cells [1]; 25 μM, 0 h) did it give?
**A.** 69 ± 5.6%

**Q.** And the G2/M % (MCF-7 cells [1]; 25 μM, 0 h)?
**A.** 20.7 ± 3.4%

**Q.** What about the S % (MCF-7 cells [1]; 25 μM, 0 h) of the same molecule?
**A.** 7.5 ± 1.6%

**Q.** And the Sub-G1 % (MCF-7 cells [1]; 25 μM, 0 h)?
**A.** 1.4 ± 0.5%

**Q.** And the G0/G1 % (MCF-7 cells [1]; 25 μM, 24 h)?
**A.** 11.5 ± 2.7%

**Q.** What about the G2/M % (MCF-7 cells [1]; 25 μM, 24 h) of the same molecule?
**A.** 59.7 ± 5.2%

**Q.** What about the S % (MCF-7 cells [1]; 25 μM, 24 h) of the same molecule?
**A.** 4.3 ± 1.4%

**Q.** What about the Sub-G1 % (MCF-7 cells [1]; 25 μM, 24 h) of the same molecule?
**A.** 15.3 ± 2.5%

**Q.** What about the “accumulation of cells in the G2/M phase (in words)” value (MCF-7 cells [1]; 25 μM, 24 hours) of the same molecule?
**A.** massive accumulation of cells in the G2/M phase

**Q.** What about the G0/G1 % (MCF-7 cells [1]; 25 μM, 48 h) of the same molecule?
**A.** 8 ± 3.3%

**Q.** And the G2/M % (MCF-7 cells [1]; 25 μM, 48 h)?
**A.** 42.4 ± 3.8%

**Q.** And the S % (MCF-7 cells [1]; 25 μM, 48 h)?
**A.** 4 ± 1.1%

**Q.** What about the Sub-G1 % (MCF-7 cells [1]; 25 μM, 48 h) of the same molecule?
**A.** 37.8 ± 3.2%

**Q.** What about the G0/G1 % (MCF-7 cells [1]; 25 μM, 72 h) of the same molecule?
**A.** 5.9 ± 1.9%

**Q.** And the G2/M % (MCF-7 cells [1]; 25 μM, 72 h)?
**A.** 35.3 ± 3.9%

**Q.** And the S % (MCF-7 cells [1]; 25 μM, 72 h)?
**A.** 4.1 ± 1.4%

**Q.** And the Sub-G1 % (MCF-7 cells [1]; 25 μM, 72 h)?
**A.** 50.2 ± 2.5%

**Q.** What about the “percent sub-G1 cells compared with noscapine” value (MCF-7 cells [1]; lower doses (5 μM and 10 μM), 72 hours) of the same molecule?
**A.** higher

**Q.** And the caspase-3 activation (caspase-3)?
**A.** associated with activation of the key executioner cysteine protease, caspase-3

**Q.** What about the “effect on cell cycle of normal cells” value [2] of the same molecule?
**A.** without affecting the cell cycle

**Q.** And the “inhibition of cell proliferation (in words)” value [3]?
**A.** effectively inhibits cell proliferation

**Q.** And the “nuclear morphology, features of apoptotic cells” value (MDA-MB-231 cells [4])?
**A.** condensed chromosomes, numerous fragmented micronuclei, and apoptotic bodies are evident

**Q.** And the “inhibition of cell proliferation (in words)” value (CEM cells)?
**A.** effectively inhibits cell proliferation

**Q.** What about the IC50 (CEM cells; Homo sapiens, CCRF-CEM, 72 hours) of the same molecule?
**A.** 1200 ± 300 nM

**Q.** And the IC50 (MCF-7 cells [5])?
**A.** 1900 ± 300 nM

**Q.** What about the IC50 (MDA-MB-231 cells [6]) of the same molecule?
**A.** 3.5 ± 0.4 µM
